Measurements reported in patent publication US20020150626A1, “Lipid-protein-sugar particles for delivery of nucleic acids” (priority 2000, published 2002).
Where two headings read alike, the source gives them in different places.

Legend:
[1] = rat, in vivo
Method: The presence of functional deficits in the un-injected extremity was used as a measure of the degree of systemically distributed local anesthetic (i.e., toxicity). Thermal latency (the length of time that a rat would leave his paw on the hotplate) was measured in the un-injected leg at predetermined intervals, in rats who received 10% bupivacaine LPSPs or 50% bupivacaine microspheres (FIG. 4).

[2] = Median lethal dose of bupivacaine (literature); format: in vivo; conditions: in a 350 g rat
[3] = adult rats; Kohane et al. 1998; cited from earlier work

For `CCCCN1CCCCC1C(=O)Nc1c(C)cccc1C` (stereo not drawn) [bupivacaine in solution, bupivacaine], the “signs of systemic toxicity (contralateral thermal latency)” value [1] is listed as “one of those rats had severe signs of systemic toxicity”, the median lethal dose [2] is listed as 10.5 mg and the median lethal dose [3] is listed as 30 ± 5 mg/kg.
